Measured values taken from article PMC11942486, “The Impact of a Quinone Scaffold on Thermo-TRPs Modulation by Dimethylheptyl Phytocannabinoids” (International Journal of Molecular Sciences, 2025).
Like-named read-outs stand apart in the source and are kept apart here.

Key:
rat TRPA1 [1] = biological target: T1, rat TRPA1 (Rattus norvegicus, UniProt Q6RI86); set-up: method as in PMID 34440274; settings: cited from earlier work; for TRPA1 Efficacy (% AITC 100 μM): agonist effect as % of AITC 100 μM, HEK-293 rat TRPA1
T1 construct: expressed in transfected cells
T1 sequence (Q6RI86 whole entry): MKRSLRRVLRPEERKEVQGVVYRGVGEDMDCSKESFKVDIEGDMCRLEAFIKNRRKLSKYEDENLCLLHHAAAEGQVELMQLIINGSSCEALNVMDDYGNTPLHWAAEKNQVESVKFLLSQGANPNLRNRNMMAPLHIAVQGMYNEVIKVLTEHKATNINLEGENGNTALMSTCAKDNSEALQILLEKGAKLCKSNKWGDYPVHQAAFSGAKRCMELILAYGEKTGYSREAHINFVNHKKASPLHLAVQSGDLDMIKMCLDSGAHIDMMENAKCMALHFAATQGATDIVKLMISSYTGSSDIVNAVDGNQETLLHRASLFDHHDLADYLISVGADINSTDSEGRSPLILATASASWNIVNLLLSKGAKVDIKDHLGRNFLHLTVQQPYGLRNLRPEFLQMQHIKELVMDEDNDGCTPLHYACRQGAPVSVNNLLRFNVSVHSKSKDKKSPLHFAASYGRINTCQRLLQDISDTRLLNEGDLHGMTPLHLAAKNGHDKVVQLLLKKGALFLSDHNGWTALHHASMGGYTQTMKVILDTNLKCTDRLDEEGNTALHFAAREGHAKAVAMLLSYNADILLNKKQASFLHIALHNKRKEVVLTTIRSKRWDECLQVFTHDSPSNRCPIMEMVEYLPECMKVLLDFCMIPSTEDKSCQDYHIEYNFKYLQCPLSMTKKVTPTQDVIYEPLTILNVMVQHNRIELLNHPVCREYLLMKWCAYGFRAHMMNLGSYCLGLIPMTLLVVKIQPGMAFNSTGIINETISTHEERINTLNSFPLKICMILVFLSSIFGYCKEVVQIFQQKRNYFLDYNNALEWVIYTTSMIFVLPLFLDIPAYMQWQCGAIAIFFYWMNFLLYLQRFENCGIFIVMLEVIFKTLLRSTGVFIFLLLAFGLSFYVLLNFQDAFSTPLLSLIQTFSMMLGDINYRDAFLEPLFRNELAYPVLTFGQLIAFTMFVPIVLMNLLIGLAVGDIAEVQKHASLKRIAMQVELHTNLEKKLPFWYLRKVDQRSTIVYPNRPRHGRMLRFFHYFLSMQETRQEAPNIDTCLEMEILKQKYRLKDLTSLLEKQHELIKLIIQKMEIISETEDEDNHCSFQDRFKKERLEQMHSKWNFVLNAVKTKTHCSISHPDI

human TRPV1 [2] = biological target: T2, human TRPV1 (Homo sapiens, UniProt Q8NER1); set-up: method as in PMID 34440274
T2 construct: expressed in transfected cells
T2 sequence (Q8NER1 whole entry): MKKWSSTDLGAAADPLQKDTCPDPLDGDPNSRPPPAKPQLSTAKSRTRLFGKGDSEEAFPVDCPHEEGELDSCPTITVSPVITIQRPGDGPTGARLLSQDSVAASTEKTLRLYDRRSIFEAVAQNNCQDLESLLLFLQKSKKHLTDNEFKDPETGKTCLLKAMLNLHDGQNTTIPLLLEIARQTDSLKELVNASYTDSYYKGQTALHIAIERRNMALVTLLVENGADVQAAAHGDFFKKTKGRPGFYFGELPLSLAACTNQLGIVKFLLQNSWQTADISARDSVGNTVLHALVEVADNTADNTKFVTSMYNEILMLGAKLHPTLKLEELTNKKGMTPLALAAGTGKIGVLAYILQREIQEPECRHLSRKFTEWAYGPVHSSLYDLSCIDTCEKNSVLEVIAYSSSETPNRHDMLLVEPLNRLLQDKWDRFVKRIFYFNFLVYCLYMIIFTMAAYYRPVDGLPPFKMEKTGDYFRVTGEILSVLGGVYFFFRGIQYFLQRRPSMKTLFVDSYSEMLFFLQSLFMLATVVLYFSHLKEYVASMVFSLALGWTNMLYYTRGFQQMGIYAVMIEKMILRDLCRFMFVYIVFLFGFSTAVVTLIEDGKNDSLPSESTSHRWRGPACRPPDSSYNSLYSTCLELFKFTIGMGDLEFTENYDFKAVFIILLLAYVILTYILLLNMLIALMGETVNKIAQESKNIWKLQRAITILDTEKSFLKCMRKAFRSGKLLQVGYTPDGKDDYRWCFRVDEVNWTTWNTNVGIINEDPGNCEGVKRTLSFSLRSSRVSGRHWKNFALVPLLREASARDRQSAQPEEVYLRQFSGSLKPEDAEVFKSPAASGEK

rat TRPV4 [3] = biological target: T3, rat TRPV4 (Rattus norvegicus, UniProt Q9ERZ8); set-up: method as in PMID 34440274
T3 construct: expressed in transfected cells
T3 sequence (Q9ERZ8 whole entry): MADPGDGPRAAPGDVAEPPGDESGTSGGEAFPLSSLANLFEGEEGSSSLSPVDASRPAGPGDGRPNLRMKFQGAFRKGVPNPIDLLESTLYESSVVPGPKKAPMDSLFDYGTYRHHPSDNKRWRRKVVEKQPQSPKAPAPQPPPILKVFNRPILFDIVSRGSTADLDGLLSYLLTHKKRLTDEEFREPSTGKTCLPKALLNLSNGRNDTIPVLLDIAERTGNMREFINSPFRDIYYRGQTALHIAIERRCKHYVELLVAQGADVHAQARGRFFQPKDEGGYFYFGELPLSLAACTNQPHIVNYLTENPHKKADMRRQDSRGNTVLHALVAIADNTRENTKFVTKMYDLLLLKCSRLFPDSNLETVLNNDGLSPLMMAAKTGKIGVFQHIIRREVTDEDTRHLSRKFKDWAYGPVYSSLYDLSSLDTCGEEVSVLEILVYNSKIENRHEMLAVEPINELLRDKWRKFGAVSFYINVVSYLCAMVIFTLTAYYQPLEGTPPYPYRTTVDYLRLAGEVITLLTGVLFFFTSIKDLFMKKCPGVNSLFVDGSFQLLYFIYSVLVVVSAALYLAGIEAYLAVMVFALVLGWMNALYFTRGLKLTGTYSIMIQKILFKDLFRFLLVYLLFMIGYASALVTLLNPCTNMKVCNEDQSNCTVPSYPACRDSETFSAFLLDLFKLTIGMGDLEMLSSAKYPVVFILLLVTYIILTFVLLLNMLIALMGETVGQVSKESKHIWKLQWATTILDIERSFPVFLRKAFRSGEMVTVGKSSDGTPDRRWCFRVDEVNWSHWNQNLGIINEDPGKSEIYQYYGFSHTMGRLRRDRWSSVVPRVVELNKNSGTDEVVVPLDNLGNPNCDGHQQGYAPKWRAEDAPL

rat TRPV2 [4] = biological target: T4, rat TRPV2 (Rattus norvegicus, UniProt Q9WUD2); set-up: method as in PMID 34440274; settings: cited from earlier work; for TRPV2 Efficacy (% Ionomycin 4 μM): agonist effect as % of ionomycin 4 μM
T4 construct: expressed in transfected cells
T4 sequence (Q9WUD2 1-761): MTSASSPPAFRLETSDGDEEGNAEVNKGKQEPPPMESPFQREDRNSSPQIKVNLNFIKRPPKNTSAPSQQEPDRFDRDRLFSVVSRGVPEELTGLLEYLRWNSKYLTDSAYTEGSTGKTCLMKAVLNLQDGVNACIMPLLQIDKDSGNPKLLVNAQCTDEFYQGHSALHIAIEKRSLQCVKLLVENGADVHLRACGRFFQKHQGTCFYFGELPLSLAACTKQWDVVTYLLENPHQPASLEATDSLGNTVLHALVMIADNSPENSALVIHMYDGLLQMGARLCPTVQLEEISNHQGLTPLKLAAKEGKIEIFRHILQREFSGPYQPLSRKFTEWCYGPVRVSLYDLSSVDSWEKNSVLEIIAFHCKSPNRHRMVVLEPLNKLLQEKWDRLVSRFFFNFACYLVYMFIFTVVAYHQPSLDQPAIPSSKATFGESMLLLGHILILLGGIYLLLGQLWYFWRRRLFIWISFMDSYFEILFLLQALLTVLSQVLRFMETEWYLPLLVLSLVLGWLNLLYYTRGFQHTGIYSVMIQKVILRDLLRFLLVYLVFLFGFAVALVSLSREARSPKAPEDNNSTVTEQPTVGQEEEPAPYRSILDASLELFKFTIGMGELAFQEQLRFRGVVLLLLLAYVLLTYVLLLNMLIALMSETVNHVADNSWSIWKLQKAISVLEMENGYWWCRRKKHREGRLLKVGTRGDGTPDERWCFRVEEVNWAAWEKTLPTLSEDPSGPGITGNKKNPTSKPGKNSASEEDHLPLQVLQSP

rat TRPV3 [5] = biological target: T5, rat TRPV3 (Rattus norvegicus, UniProt Q4QYD9); set-up: method as in PMID 34440274
T5 construct: expressed in transfected cells
T5 sequence (Q4QYD9 1-791): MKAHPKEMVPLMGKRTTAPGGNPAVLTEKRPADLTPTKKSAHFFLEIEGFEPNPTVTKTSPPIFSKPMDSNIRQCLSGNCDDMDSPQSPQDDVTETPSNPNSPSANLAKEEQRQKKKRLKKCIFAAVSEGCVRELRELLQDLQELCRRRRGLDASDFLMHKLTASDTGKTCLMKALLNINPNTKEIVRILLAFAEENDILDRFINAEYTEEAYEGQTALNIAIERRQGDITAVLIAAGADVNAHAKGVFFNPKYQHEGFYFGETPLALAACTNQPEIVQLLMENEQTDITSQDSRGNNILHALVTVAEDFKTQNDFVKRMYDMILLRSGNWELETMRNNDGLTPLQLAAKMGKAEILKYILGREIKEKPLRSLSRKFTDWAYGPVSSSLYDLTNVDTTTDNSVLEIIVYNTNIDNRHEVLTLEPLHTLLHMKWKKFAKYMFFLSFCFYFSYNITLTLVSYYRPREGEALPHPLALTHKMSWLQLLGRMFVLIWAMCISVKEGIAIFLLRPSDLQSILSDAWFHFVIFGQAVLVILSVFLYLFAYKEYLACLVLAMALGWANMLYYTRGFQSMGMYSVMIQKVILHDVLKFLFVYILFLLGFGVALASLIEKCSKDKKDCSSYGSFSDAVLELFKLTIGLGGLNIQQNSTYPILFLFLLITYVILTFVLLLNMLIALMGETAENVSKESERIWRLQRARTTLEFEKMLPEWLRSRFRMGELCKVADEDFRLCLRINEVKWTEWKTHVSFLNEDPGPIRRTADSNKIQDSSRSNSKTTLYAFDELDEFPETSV

rat TRPM8 [6] = biological target: T6, rat TRPM8 (Rattus norvegicus, UniProt Q8R455); set-up: method as in PMID 34440274; settings: vs Icilin 0.25 μM; 22 °C; cited from earlier work
T6 construct: expressed in transfected cells
T6 sequence (Q8R455 whole entry): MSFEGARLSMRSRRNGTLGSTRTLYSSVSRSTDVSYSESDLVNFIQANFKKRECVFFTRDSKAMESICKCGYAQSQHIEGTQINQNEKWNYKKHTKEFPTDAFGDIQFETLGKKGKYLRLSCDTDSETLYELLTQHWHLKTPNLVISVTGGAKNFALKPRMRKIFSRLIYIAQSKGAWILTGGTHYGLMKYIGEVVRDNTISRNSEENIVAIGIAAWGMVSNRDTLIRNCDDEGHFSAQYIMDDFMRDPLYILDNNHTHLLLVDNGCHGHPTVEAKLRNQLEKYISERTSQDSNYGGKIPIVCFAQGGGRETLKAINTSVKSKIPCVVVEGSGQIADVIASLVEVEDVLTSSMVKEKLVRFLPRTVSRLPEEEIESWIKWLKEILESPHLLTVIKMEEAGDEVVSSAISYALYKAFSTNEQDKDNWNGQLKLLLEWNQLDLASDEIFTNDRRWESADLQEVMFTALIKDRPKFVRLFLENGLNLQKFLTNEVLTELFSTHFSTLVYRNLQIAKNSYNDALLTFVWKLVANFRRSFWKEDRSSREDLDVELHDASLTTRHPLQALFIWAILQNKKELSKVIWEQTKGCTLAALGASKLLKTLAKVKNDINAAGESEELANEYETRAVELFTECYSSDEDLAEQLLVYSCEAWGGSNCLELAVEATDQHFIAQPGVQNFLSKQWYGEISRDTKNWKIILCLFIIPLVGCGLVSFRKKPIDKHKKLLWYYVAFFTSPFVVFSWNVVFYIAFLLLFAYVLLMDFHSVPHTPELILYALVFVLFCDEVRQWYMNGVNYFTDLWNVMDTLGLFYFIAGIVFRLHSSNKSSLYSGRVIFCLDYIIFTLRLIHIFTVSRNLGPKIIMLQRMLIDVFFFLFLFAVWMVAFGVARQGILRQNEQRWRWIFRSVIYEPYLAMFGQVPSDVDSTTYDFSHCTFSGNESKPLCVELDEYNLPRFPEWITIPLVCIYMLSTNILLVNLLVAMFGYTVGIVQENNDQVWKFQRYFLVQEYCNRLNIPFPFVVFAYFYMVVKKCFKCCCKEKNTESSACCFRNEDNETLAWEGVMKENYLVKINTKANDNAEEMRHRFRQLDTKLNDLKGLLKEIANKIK

rat TRPA1 [7] = biological target: T1, rat TRPA1; assay: Thermo-TRP assay: [Ca2+]i elevation (Fluo-4) in HEK-293 cells transfected with TRPA1; format: cell-based
Experimental: (§1) The compounds were tested on HEK-293 cells either stably transfected with rat TRPA1, TRPV2, TRPV3, TRPV4, TRPM8 or human TRPV1 or not-transfected, by performing a continuous monitoring of the intracellular calcium ([Ca^2+]i) elevation during the experiments, following the protocol already described. […] Cell fluorescence before and after the addition of various concentrations of tested compounds was measured, normalizing the effects against the response to ionomycin (IM, 4 μM). The effect on [Ca^2+]i in non-transfected HEK-293 cells were used as the baseline and subtracted from the values obtained from the transfected ones. The efficacy of the agonists was determined by normalizing their effect to the maximum Ca^2+ influx effect on [Ca^2+]i observed with application of 4μM ionomycin. The effects of TRPA1 agonists are expressed as a percentage of the effect obtained with 100 μM allyl isothiocyanate (AITC). In the TRPV3 assay, rat TRPV3-expressing HEK-293 cells were first sensitized with the structurally unrelated agonist 2-aminoethoxydiphenyl borate (100 μM). For the TRPM8, the experiments were carried out at 22 °C. The potency (EC50 values) is determined as the concentration required to produce half-maximal increases in [Ca^2+]i. […] A dose-response curve fitting (sigmoidal dose-response variable slope) and parameter estimation were performed with Graph-Pad Prism 8 (GraphPad Software Inc., San Diego, CA, USA). All determinations were performed at least in triplicate.

human TRPV1 [8] = biological target: T2, human TRPV1; assay: Thermo-TRP assay: [Ca2+]i elevation (Fluo-4) in HEK-293 cells transfected with TRPV1; format: cell-based
Experimental: as §1

rat TRPV4 [9] = biological target: T3, rat TRPV4; assay: Thermo-TRP assay: [Ca2+]i elevation (Fluo-4) in HEK-293 cells transfected with TRPV4; format: cell-based
Experimental: as §1

rat TRPM8 [10] = biological target: T6, rat TRPM8; assay: Thermo-TRP assay: [Ca2+]i elevation (Fluo-4) in HEK-293 cells transfected with TRPM8; format: cell-based
Experimental: as §1

rat TRPV2 [11] = biological target: T4, rat TRPV2; assay: Thermo-TRP assay: [Ca2+]i elevation (Fluo-4) in HEK-293 cells transfected with TRPV2; format: cell-based
Experimental: (§2) The compounds were tested on HEK-293 cells either stably transfected with rat TRPA1, TRPV2, TRPV3, TRPV4, TRPM8 or human TRPV1 or not-transfected, by performing a continuous monitoring of the intracellular calcium ([Ca^2+]i) elevation during the experiments, following the protocol already described. On the day of the experiment, the cells were loaded for 1 h in the dark at room temperature with the fluorescent probe Fluo-4 AM (4 μM in DMSO containing 0.02% Pluronic F-127). The cells were rinsed, resuspended in Tyrode’s solution (145 mM NaCl, 2.5 mM KCl, 1.5 mM CaCl2, 1.2 mM MgCl2, 10 mM D-glucose, and 10 mM HEPES, pH 7.4), and transferred to a quartz cuvette of a spectrofluorimeter (PerkinElmer LS50B; λEX = 488 nm, λEM = 516 nm) equipped with a PTP-1 fluorescence Peltier system (PerkinElmer Life and Analytical Sciences, Waltham, MA, USA) under continuous stirring. Cell fluorescence before and after the addition of various concentrations of tested compounds was measured, normalizing the effects against the response to ionomycin (IM, 4 μM). The effect on [Ca^2+]i in non-transfected HEK-293 cells were used as the baseline and subtracted from the values obtained from the transfected ones. The efficacy of the agonists was determined by normalizing their effect to the maximum Ca^2+ influx effect on [Ca^2+]i observed with application of 4μM ionomycin. The effects of TRPA1 agonists are expressed as a percentage of the effect obtained with 100 μM allyl isothiocyanate (AITC). In the TRPV3 assay, rat TRPV3-expressing HEK-293 cells were first sensitized with the structurally unrelated agonist 2-aminoethoxydiphenyl borate (100 μM). For the TRPM8, the experiments were carried out at 22 °C. The potency (EC50 values) is determined as the concentration required to produce half-maximal increases in [Ca^2+]i. Antagonist/desensitizing behavior is evaluated against the agonist of the TRP analyzed by adding the compounds directly in the quartz cuvette 5 min before stimulation of cells with the agonist (allylisothiocyanate (100 μM) for TRPA1, capsaicin (0.1 μM) for TRPV1, cannabidiol (2 μM) for TRPV2, thymol (100 μM) for TRPV3, GSK1016790A (10 nM) for TRPV4, and icilin (0.25 μM) for TRPM8). The IC50 value is expressed as the concentration exerting a half-maximal inhibition of the agonist effect, taking as 100% the effect on [Ca^2+]i exerted by the agonist alone. A dose-response curve fitting (sigmoidal dose-response variable slope) and parameter estimation were performed with Graph-Pad Prism 8 (GraphPad Software Inc., San Diego, CA, USA). All determinations were performed at least in triplicate.

rat TRPV3 [12] = biological target: T5, rat TRPV3; assay: Thermo-TRP assay: [Ca2+]i elevation (Fluo-4) in HEK-293 cells transfected with TRPV3; format: cell-based
Experimental: as §2

[13] = vs Capsaicin 0.1 μM; read-out: IC50 TRPV1; cited from earlier work
[14] = vs GSK1016790A 10 nM; read-out: IC50 TRPV4; cited from earlier work
[15] = agonist effect as % of ionomycin 4 μM; cited from earlier work
[16] = antagonist/desensitizing, vs Thymol 100 μM; cited from earlier work
[17] = read-out: IC50 TRPV1; vs Capsaicin 0.1 μM; cited from earlier work
[18] = read-out: IC50 TRPV4; vs GSK1016790A 10 nM; cited from earlier work

Row | Compound | TRPA1 Efficacy (% AITC 100 μM) (rat TRPA1 [1]) | IC50 (human TRPV1 [2]; [13]) | IC50 (rat TRPV4 [3]; [14]) | TRPV2 Efficacy (% Ionomycin 4 μM) (rat TRPV2 [4]) | TRPV3 Efficacy (% Ionomycin 4 μM) (rat TRPV3 [5]; [15]) | IC50 (rat TRPV3 [5]; [16]) | IC50 (human TRPV1 [2]; [17]) | IC50 (rat TRPV4 [3]; [18]) | other results
1 | C=C(C)[C@@H]1CCC(C)=C[C@H]1c1c(O)cc(C(C)(C)CCCCCC)cc1O [5a, DMH-CBD] | 133.4 ± 5.3% | > 100 µM | > 100 µM | <10% | 15.8 ± 0.4% | > 30 µM |  |  | 
2 | CCCCCCC(C)(C)c1cc(O)c2c(c1)OC(C)(C)[C@@H]1CC=C(C)C[C@@H]21 [6a, DMH-Δ⁸-THC] | 124.2 ± 4.0% |  |  | <10% | 53.8 ± 1.6% |  | > 100 µM | > 100 µM | 
3 | CCCCCCC(C)(C)c1cc(O)c(C/C=C(\C)CCC=C(C)C)c(O)c1 [7a, DMH-CBG] | 99.2 ± 4.5% | > 100 µM |  | 65.3 ± 0.7% | 64.6 ± 4.8% | > 30 µM |  |  | 
4 | CCCCCCC(C)(C)c1cc(O)c2c(c1)OC(C)(CCC=C(C)C)C=C2 (centres unmarked) [8a, DMH-CBC] | 120.4 ± 2.8% | > 100 µM | > 100 µM | 76.1 ± 0.6% | 41.6 ± 1.8% | > 50 µM |  |  | IC50 (rat TRPA1 [1]; read-out: IC50 TRPA1, antagonist/desensitizing, vs AITC 100 μM): 0.37 µM; IC50 (rat TRPM8 [6]): > 100 µM; EC50 (rat TRPV3 [5]; half-maximal increase in [Ca2+]i; read-out: TRPV3 Potency EC50; cited from earlier work): > 50 µM
5 | CCCCCCC(C)(C)c1cc(O)c2c(c1)OC(C)(C)c1ccc(C)cc1-2 [9a, DMH-CBN] | 132.3 ± 7.9% |  |  | 10.5 ± 0.02% | 20.9 ± 3.0% |  | > 100 µM | > 100 µM | IC50 (rat TRPV2 [4]; read-out: IC50 TRPV2, vs CBD 2 μM): > 50 µM; EC50 (rat TRPV2 [4]; read-out: TRPV2 Potency EC50, half-maximal increase in [Ca2+]i): 0.25 ± 0.03 µM; EC50 (rat TRPV3 [5]; read-out: TRPV3 Potency EC50; half-maximal increase in [Ca2+]i; cited from earlier work): 41.4 ± 21.6 µM
6 | CCCCCCC(C)(C)C1=CC2=C(C(=O)C1=O)c1cc(C)ccc1C(C)(C)O2 [9b] |  |  |  |  |  |  |  |  | IC50 (rat TRPA1 [7]; IC50 TRPA1, antagonist/desensitizing, added 5 min before AITC 100 μM): 15.1 ± 2.4 µM; TRPA1 Efficacy (% AITC 100 μM) (rat TRPA1 [7]; agonist effect as % of AITC 100 μM, HEK-293 rat TRPA1): 20.5%; IC50 (human TRPV1 [8]): > 100 µM; IC50 (rat TRPV4 [9]): > 100 µM; IC50 (rat TRPM8 [10]): > 100 µM; TRPV2 Efficacy (% Ionomycin 4 μM) (rat TRPV2 [11]; agonist effect as % of ionomycin 4 μM): 23.4 ± 3.7%; EC50 (rat TRPV2 [11]; half-maximal increase in [Ca2+]i, read-out: TRPV2 Potency EC50): 2 ± 1.6 µM; IC50 (rat TRPV2 [11]; vs CBD 2 μM): 5.2 ± 0.6 µM; TRPV3 Efficacy (% Ionomycin 4 μM) (rat TRPV3 [12]; agonist effect as % of ionomycin 4 μM, cells sensitized with 2-aminoethoxydiphenyl borate 100 μM): 32.5 ± 0.65%; IC50 (rat TRPV3 [12]; antagonist/desensitizing, vs Thymol 100 μM): 19.4 ± 3.5 µM; EC50 (rat TRPV3 [12]; half-maximal increase in [Ca2+]i, read-out: TRPV3 Potency EC50): 1.15 ± 0.15 µM
